According to US20230113037A1 (Bayer Aktiengesellschaft, priority 2019, published 2023):
pIC50: −log10 of the molar value. Several values for one entry are separate records, joined by “and”; a condition that tells them apart may be missing. Identical values can stand only once. Like-named read-outs stand apart in the source and are kept apart here.

Key:
AHR [1] = molecular target: T1, AHR (Homo sapiens, UniProt P35869); assay: In vitro assay 1: antagonism in human cell line (AHR transactivation, firefly luciferase reporter, kynurenic acid prestimulated); format: cell-based; settings: AHR Antagonism Human IC50 [M]
T1 construct: U87 MG glioblastoma cells (ATCC #HTB-14) endogenously expressing AHR; endogenous in cells; host or cells: U87 MG glioblastoma cells (ATCC #HTB-14)
T1 sequence (P35869 11-848): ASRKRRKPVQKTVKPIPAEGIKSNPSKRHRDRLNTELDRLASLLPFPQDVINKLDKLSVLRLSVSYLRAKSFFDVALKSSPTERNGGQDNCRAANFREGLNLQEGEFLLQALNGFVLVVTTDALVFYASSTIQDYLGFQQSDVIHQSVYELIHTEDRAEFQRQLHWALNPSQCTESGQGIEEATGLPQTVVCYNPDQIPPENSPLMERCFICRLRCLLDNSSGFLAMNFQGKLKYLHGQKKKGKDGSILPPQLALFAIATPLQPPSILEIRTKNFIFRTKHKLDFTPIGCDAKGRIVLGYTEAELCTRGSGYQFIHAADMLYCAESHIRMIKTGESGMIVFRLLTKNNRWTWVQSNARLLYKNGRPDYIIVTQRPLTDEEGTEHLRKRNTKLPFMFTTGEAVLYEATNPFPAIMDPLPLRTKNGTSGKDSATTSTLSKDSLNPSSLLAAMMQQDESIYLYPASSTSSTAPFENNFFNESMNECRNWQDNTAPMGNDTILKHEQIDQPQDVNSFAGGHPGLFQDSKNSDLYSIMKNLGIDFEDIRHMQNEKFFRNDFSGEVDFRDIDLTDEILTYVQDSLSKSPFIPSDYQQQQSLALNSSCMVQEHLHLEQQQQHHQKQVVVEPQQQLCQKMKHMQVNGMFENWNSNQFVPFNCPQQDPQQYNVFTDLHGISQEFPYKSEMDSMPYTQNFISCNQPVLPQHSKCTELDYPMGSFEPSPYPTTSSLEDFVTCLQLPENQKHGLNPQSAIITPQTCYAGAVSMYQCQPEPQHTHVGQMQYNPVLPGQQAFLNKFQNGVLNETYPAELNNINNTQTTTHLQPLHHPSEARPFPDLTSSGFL
In short: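 U87 MG glioblastoma cells with endogenous AHR, stably carrying a DRE-driven firefly luciferase reporter and constitutive Renilla reporter, prestimulated with kynurenic acid before compound addition. Firefly and Renilla read by dual luciferase; Renilla flags toxicity; normalized to controls (150 μM kynurenic acid + 5 μM staurosporine as full inhibition); repeat values averaged or median.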

AHR [2] = molecular target: T2, AHR (Mus musculus, UniProt P30561); assay: In vitro assay 3: antagonism in mouse cell line (AHR transactivation, firefly luciferase reporter, kynurenic acid prestimulated); format: cell-based
T2 sequence (P30561 1-848 P471L/N533S/M589L): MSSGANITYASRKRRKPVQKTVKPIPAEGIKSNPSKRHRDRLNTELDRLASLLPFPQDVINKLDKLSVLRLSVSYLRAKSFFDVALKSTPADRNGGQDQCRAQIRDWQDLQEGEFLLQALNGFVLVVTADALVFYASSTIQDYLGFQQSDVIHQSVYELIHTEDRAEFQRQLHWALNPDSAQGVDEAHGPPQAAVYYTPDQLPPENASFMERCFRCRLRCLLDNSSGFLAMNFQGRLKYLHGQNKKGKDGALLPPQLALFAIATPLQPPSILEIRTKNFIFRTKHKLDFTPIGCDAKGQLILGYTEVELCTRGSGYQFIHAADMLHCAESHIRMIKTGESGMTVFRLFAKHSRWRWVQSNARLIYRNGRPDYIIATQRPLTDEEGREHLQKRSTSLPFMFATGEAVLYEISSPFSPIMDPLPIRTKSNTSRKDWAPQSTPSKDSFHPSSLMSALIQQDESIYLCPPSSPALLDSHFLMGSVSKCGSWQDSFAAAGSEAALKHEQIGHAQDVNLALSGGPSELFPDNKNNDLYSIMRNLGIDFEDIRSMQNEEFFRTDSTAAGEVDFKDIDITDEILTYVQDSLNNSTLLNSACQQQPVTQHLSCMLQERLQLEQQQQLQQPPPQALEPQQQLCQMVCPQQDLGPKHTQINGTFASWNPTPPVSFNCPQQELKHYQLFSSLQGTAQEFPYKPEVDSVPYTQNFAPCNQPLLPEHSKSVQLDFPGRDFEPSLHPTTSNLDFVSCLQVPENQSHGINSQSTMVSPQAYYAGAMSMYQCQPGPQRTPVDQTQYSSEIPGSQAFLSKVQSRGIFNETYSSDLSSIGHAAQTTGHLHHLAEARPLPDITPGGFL
In short: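 Mouse cells stably carrying a DRE-driven AHR-inducible firefly luciferase reporter were prestimulated with the endogenous agonist kynurenic acid before compound addition. Luciferase read by SteadyGlo; cells without kynurenic acid served as full-inhibition control, with normalization to positive and negative controls. Repeat tests reported as mean or median.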

[3] = mouse Hepa 1c1c7 cells, 200 μM kynurenic acid, 20 hours, read-out: AHR Antagonism Mouse IC50
[4] = Hepa 1c1c7 cells, 200 μM kynurenic acid, 20 hours, firefly luciferase reporter, read-out: AHR Antagonism Mouse IC50

IC50 (AHR [1]) | pIC50 (AHR [2]; [3]) | IC50 (AHR [1]; firefly luciferase reporter) | pIC50 (AHR [2]; [4]) | Structure (SMILES) | pIC50 (AHR [2]; read-out: AHR Antagonism Mouse IC50, mouse Hepa 1c1c7 cells, 200 μM kynurenic acid, 20 hours)
2.96e-07 M | 6.80 | – | – | O=C1NCCCC[C@H]1Nc1nc2ccccc2c2nc(-c3cnn(CCO)c3)nn12 [Example 601, (3R)-3-({2-[1-(2-hydroxyethyl)-1H-pyrazol-4-yl][1,2,4]triazolo[1,5-c]quinazolin-5-yl}amino)azepan-2-one] | –
9.97e-09 M | 8.10 | – | – | COc1ccc(-c2nc3c4cccc(C5CC5)c4nc(N[C@@H]4CCCCNC4=O)n3n2)cc1 [Example 206, (3R)-3-{[7-cyclopropyl-2-(4-methoxyphenyl)[1,2,4]triazolo[1,5-c]quinazolin-5-yl]amino}azepan-2-one] | –
1.49e-05 M and 1.56e-05 M and > 2e-05 M | 6.17 | – | – | C[C@@H](Nc1nc2ccccc2c2nc(-c3cccc(OC(F)(F)F)c3)nn12)C(=O)NCCN(C)C [Example 325, N-[2-(dimethylamino)ethyl]-N^2-{2-[3-(trifluoromethoxy)phenyl][1,2,4]triazolo[1,5-c]quinazolin-5-yl}-D-alaninamide] | –
2.61e-07 M | 6.94 | – | – | COc1cccc(-c2nc3c4cc(F)ccc4nc(NC4CCCNC4=O)n3n2)c1 (single isomer, unassigned) [Example 189, 3-{[9-fluoro-2-(3-methoxyphenyl)[1,2,4]triazolo[1,5-c]quinazolin-5-yl]amino}piperidin-2-one] | –
– | – | 8.72e-08 M | 6.80 | C[C@@H](Nc1nc2c(C(F)(F)F)cccc2c2nc(-c3cnn(C)c3)nn12)C(=O)N(C)CCN(C)C [Example 877, N-[2-(dimethylamino)ethyl]-N-methyl-N^2-[2-(1-methyl-1H-pyrazol-4-yl)-7-(trifluoromethyl)[1,2,4]triazolo[1,5-c]quinazolin-5-yl]-D-alaninamide] | –
3.57e-09 M | 9.20 | – | – | CC[C@@H](Nc1nc2ccccc2c2nc(-c3ccsc3)nn12)C(N)=O [Example 344] | –
3.79e-08 M | 8.22 | – | – | COc1cccc(-c2nc3c4ccccc4nc(N[C@H](C)C(=O)NCCCO)n3n2)c1 [Example 112, N-(3-hydroxypropyl)-N^2-[2-(3-methoxyphenyl)[1,2,4]triazolo[1,5-c]quinazolin-5-yl]-D-alaninamide] | –
8.65e-09 M | 7.70 | – | – | Cc1ccccc1-c1nc2c3ccccc3nc(NC3CCNC3=O)n2n1 (stereo not shown) [Example 43, 3-{[2-(2-methylphenyl)[1,2,4]triazolo[1,5-c]quinazolin-5-yl]amino}pyrrolidin-2-one] | –
7.19e-08 M | 7.66 | – | – | CN1CC[C@@H](Nc2nc3ccccc3c3nc(-c4cccc(OC(F)(F)F)c4)nn23)C1=O [Example 312, (3R)-1-methyl-3-({2-[3-(trifluoromethoxy)phenyl][1,2,4]triazolo[1,5-c]quinazolin-5-yl}amino)pyrrolidin-2-one] | –
8.44e-09 M | 8.48 | – | – | COc1ccc(-c2nc3c4cccc(Br)c4nc(N[C@@H]4CCCCNC4=O)n3n2)c(OC(F)(F)F)c1 [Example 565, (3R)-3-({7-bromo-2-[4-methoxy-2-(trifluoromethoxy)phenyl][1,2,4]triazolo[1,5-c]quinazolin-5-yl}amino)azepan-2-one] | –
3.06e-09 M | 8.52 | – | – | COc1ccc(-c2nc3c4cc(Br)ccc4nc(N[C@@H]4CCCCNC4=O)n3n2)cc1 [Example 242, (3R)-3-{[9-bromo-2-(4-methoxypheny)[1,2,4]triazolo[1,5-c]quinazolin-5-yl]amino}azepan-2-one] | –
> 2e-05 M | < 4.70 | – | – | CCCCNC(=O)CNc1nc2ccccc2c2nc(-c3cc(Cl)ccc3OC(F)(F)F)nn12 [Example 503, N-butyl-N^2-{2-[5-chloro-2-(trifluoromethoxy)phenyl][1,2,4]triazolo[1,5-c]quinazolin-5-yl}glycinamide] | –
– | – | 4.29e-08 M | 7.13 | CNCCNC(=O)[C@@H](C)Nc1nc2ccccc2c2nc(-c3ccc(OC)cc3)nn12 [Example 990, N^2-[2-(4-methoxyphenyl)[1,2,4]triazolo[1,5-c]quinazolin-5-yl]-N-[2-(methylamino)ethyl]-D-alaninamide-hydroxy chloride (1/1)] | –
7.05e-10 M | 9.02 | – | – | N#Cc1ccc(-c2nc3c4cccc(Br)c4nc(N[C@@H]4CNCCNC4=O)n3n2)cc1 [Example 717, 4-(7-bromo-5-{[(6R)-5-oxo-1,4-diazepan-6-yl]amino}[1,2,4]triazolo[1,5-c]quinazolin-2-yl)benzonitrile] | –
7.39e-08 M | 7.33 | – | – | O=C1NCCNC[C@H]1Nc1nc2ccccc2c2nc(-c3cccc(F)c3)nn12 [Example 261, (6R)-6-{[2-(3-fluorophenyl)[1,2,4]triazolo[1,5-c]quinazolin-5-yl]amino}-1,4-diazepan-5-one] | –
4.98e-08 M | 8.29 | – | – | O=C1NCCNC[C@H]1Nc1nc2ccccc2c2nc(-c3ccc(Br)cc3Cl)nn12 [Example 255, (6R)-6-{[2-(4-bromo-2-chlorophenyl)[1,2,4]triazolo[1,5-c]quinazolin-5-yl]amino}-1,4-diazepan-5-one] | –
9.49e-10 M | 8.96 | – | – | COc1ccc(-c2nc3c4ccccc4nc(N[C@@H]4CCCCNC4=O)n3n2)cc1F [Example 635, (3R)-3-{[2-(3-fluoro-4-methoxyphenyl)[1,2,4]triazolo[1,5-c]quinazolin-5-yl]amino}azepan-2-one] | –
6.05e-08 M | 8.20 | – | – | Cc1cscc1-c1nc2c3ccccc3nc(N[C@@H]3CCCNC3=O)n2n1 [Example 540] | –
– | – | 4.76e-08 M | 7.90 | CCCNC(=O)[C@H](C)Nc1nc2c(Br)cccc2c2nc(-c3ccc(Cl)cc3OC(F)F)nn12 [Example 802, N^2-{7-bromo-2-[4-chloro-2-(difluoromethoxy)phenyl][1,2,4]triazolo[1,5-c]quinazolin-5-yl}-N-propyl-L-alaninamide] | –
2.98e-09 M | 8.45 | – | – | O=C1NCCCC[C@H]1Nc1nc2ccccc2c2nc(-c3ccccc3OC(F)(F)F)nn12 [Example 456, (3R)-3-({2-[2-(trifluoromethoxy)phenyl][1,2,4]triazolo[1,5-c]quinazolin-5-yl}amino)azepan-2-one] | –
5.4e-08 M | 7.21 | – | – | Cn1cc(-c2nc3c4cccc(Br)c4nc(N[C@H]4CCCCNC4=O)n3n2)cn1 [Example 580, (3S)-3-{[7-bromo-2-(1H-methyl-1H-pyrazol-4-yl)[1,2,4]triazolo[1,5-c]quinazolin-5-yl]amino}azepan-2-one] | –
1.04e-08 M | 8.61 | – | – | COc1ccc(-c2nc3c4ccccc4nc(N[C@@H]4CCCCNC4=O)n3n2)c(C(F)(F)F)c1 [Example 512, (3R)-3-({2-[4-methoxy-2-(trifluoromethyl)phenyl][1,2,4]triazolo[1,5-c]quinazolin-5-yl}amino)azepan-2-one] | –

Structure (SMILES) | IC50 (AHR [1]) | pIC50 (AHR [2]; [3]) | IC50 (AHR [1]; firefly luciferase reporter) | pIC50 (AHR [2]; [4]) | pIC50 (AHR [2]; read-out: AHR Antagonism Mouse IC50, mouse Hepa 1c1c7 cells, 200 μM kynurenic acid, 20 hours)
O=C1NCCCC[C@H]1Nc1nc2ccccc2c2nc(-c3cccc(F)c3)nn12 [Example 11, (3R)-3-{[2-(3-fluorophenyl)[1,2,4]triazolo[1,5-c]quinazolin-5-yl]amino}azepan-2-one] | 1.36e-09 M | – | – | – | 9.24
